Patent US20040151761A1, “Methods and compositions utilizing astaxanthin” (priority 2003, published 2004)
“Also recorded” adds a separate entry of the source.

Experiments:
[1] = tested on: Cutaneous delayed-type hypersensitivity (DTH); assay: Delayed-type hypersensitivity (skin induration) in cats; type: in vivo, cat
[2] = tested on: Canine thyroid adenocarcinoma cells (target cells); assay: Natural killer cell cytotoxic activity in dogs; type: in vivo, dog
Procedure: Natural killer cell cytotoxic activity. Canine thyroid adenocarcinoma cells (target cells) were resuspended to 2×10^5 cells/mL in Dulbecco's Modified Eagles Medium (Sigma, St. Louis, Mo.) containing 100 mL/L fetal bovine serum, 100 U/mL penicillin, and […] streptomycin sulfate. Ficol-separated PBMC (effector cells) were resuspended to 1×10^6 and 2×10^6 cells/mL and 100 microliters added to the target cells in 96-well flat-bottom plates to provide effector:taiget ratios of 5:1 and 10:1. After incubating for 8 h, 20 microliters (5 g/L) of MTT were added and incubated for 4 hours. The supernatant was removed and the formazan resuspended in 100 microliters isopropanol. Optical density was measured at 550 nm and the percent of specific cytotoxicity calculated as follows:
(§1) % Specific cytotoxicity=1−(ODeffector+target−ODeffector)/ODtarget×100.

[3] = tested on: 8-Hydroxy-2′-deoxyguanosine (8-OHdG); assay: Oxidative damage to DNA in dogs (plasma 8-OHdG ELISA); type: in vivo, dog
Procedure: Oxidative damage to DNA. 8-Hydroxy-2′-deoxyguanosine (8-OHdG) was measured in plasma ELISA (BIOXYTECHTM™ 8-OHhdG-EIA Kit, OxisResearch, Portland, Oreg.; sensitivity=0.5 micrograms/L).

IgG and IgM = assay: Plasma IgG and IgM in dogs (ELISA); type: in vivo, dog
Source text: Female Beagle dogs (9 to 10 mo old; 8.2±0.2 kg body weight; Covance Research Products Inc., Kalamazoo, Mich.) were randomly assigned ([…] concentrate from Haematococcus pluvialis, astraZanthin™, La Haye Laboratories, Redmond, Wash.) daily for 16 weeks. Astaxanthin was incorporated into a commercial basal diet (The Iams Co., Lewisburg, Ohio.) and fed two times daily (200 g food/d). The diet composition was as follows (g/kg): 85.3 moisture, 275.8 protein, 60.7 ash, 115.0 fat, 9.9 Ca, 9.3 P, 21.3 crude fiber, and 18,914 kJ/kg gross energy; the n-6:n-3 fatty acid ratio was 7.9. Dogs were housed in 2×3 m pens (2 dogs/pen) in a temperature (20 to 22° C.) and light-(14 hour light) controlled facility. Body weight was recorded on week 0, 4, 8, and 16. Blood was collected on wk 0, 6 and 12 for assessing immune function. All dogs were vaccinated (Vanguard 5™, Smithkline Beacham, West Chester, Pa.) twice on week 12 and 14 and blood again taken on week 16 to assess post-vaccination immune responses.
IgG and IgM. Concentrations of IgG (sheep anti-dog IgG; sensitivity=16 micrograms/L) and IgM (goat anti-dog IgM; sensitivity=31 micrograms/L) in plasma were analyzed by ELISA using a commercial kit (Bethyl Lab., Inc., Montgomery, Tex.).

[4] = Absorption of astaxanthin and distribution to blood leukocytes and HDL in dogs; type: in vivo, dog
Hematology in cats = assay: Hematology in cats; set-up: species or system cat; settings: in vivo
Procedure: Hematology. Hematology parameters (white blood cell, RBC and platelet counts, lymphocyte, monocyte and granulocyte differential counts, hematocrit, hemoglobin, and mean corpuscular volume, hemoglobin and hemoglobin concentration, and platelet volume) were measured using a hematology analyzer (Vet ABC-Hematology Analyzer, Heska, Fort Collins, Colo.).

[5] = tested on: Crandell feline kidney fibroblast cells (CrFK); assay: Natural killer cell cytotoxic activity in cats; type: in vivo, cat
Procedure: Natural killer cell cytotoxic activity. Cultures of Crandell feline kidney fibroblast cells (CrFK, ATCC CRL-9761; Crandell et al., 1973) were grown in Dulbecco's Modified Eagles Medium (Sigma, St. Louis, Mo.) with 10% fetal bovine serum, 100 U/mL penicillin, and […] streptomycin sulfate. At 70-90% confluence, cells were trypsinized, washed and adjusted to 2×10^5 cells/mL. One hundred microliters of cell suspension was pipeted into each well of 96-well flat bottom plates (Nunclon, Denmark) and incubated at 37° C. for 8 hours. Ficoll-separated PBMC were adjusted to 1×10^6/mL or 2×10^6/mL and 100 μL of the cell suspensions were added to the CrFK target cells to provide effector:target cell ratios of 5:1 and 10:1. After incubating for 8 hours, 20 μL MTT (5 g/L) were added and the mixture incubated for 4 hours. The supernatant was removed and the formazan resuspended in 100 μL isopropanol. Optical density was measured at 550 nm and the percent of specific cytotoxicity calculated as follows:
as §1

[6] = tested on: CD3, CD4, CD8, MHC II and CD21 lymphocyte subpopulations; assay: Leukocyte subsets in dogs by flow cytometry; type: in vivo, dog
Source text: Leukocyte subset. Subpopulations of CD3 (total T), CD4 (Th), CD8 (Tc), MHC II (activated lymphocytes), and CD21 (mature B cells) were quantitated by flow cytometry on week 0, 6, 12 and 16 (Chew et al., 2000).

[7] = tested on: peripheral blood mononuclear cell (PBMC); assay: Lymphoproliferation in cats (whole blood); type: in vivo, cat
Procedure: Lymphoproliferation. Mitogen-induced peripheral blood mononuclear cell (PBMC) proliferation was assessed by incubating whole blood in the presence of PHA (0.25 and 1.25 mg/L final concentration), con A (0.5 and 2.5 mg/L), and pokeweed mitogen (PWM; 0.025 and 0.125 mg/L) as previously described (Chew et al., 2000). Whole blood was used in order to simulate in vivo conditions. Results are reported as stimulation index (cpm of mitogen-stimulated÷cpm of unstimulated cultures).

[8] = 20 mg, post-vaccination week 16

Question: For `CC1=C(/C=C/C(C)=C/C=C/C(C)=C/C=C/C=C(C)/C=C/C=C(C)/C=C/C2=C(C)C(=O)C(O)CC2(C)C)C(C)(C)CC(O)C1=O` (stereo not drawn) [astaxanthin, 3,3′-dihydroxy-beta, beta-carotene-4,4′-dione], which “DTH response with dietary astaxanthin” value ([1]; after vaccination, wk 12) is on record?
Answer: The value was “somewhat diminished”.

Question: And the “skin induration response to vaccine” value ([1]; wk 8, 72 h post-injection, cats fed 10 mg)?
Answer: The value was “significant enhancement”.

Question: What about the “DTH response to con A” value ([1]; wk 8, cats fed 5 or 10 mg) of the same compound?
Answer: The value was “higher DTH response to con A at 24 and 48 h”.

Question: What about the “time of maximal skin induration response to vaccine” value ([1]; wk 8, post-injection) of the same compound?
Answer: Its value is 72 h.

Question: What about the “DTH response to nonspecific (con A) antigenic challenge” value ([1]; wk 8, pre-vaccination) of the same compound?
Answer: The value was “stimulated DTH response; also recorded: increased DTH response”.

Question: What about the “DTH response to specific (vaccine) antigenic challenge” value ([1]; wk 8, pre-vaccination) of the same compound?
Answer: The value was “stimulated DTH response; also recorded: increased DTH response”.

Question: And the “DTH response to con A” value ([1]; wk 12)?
Answer: Its value is “significant only with 1 mg astaxanthin”.

Question: And the “DTH response to vaccine” value ([1]; wk 12, cats fed 10 mg)?
Answer: Its value is “still showed enhanced DTH response to vaccine, but at 24 h after injection”.

Question: What about the NK cell activity ([2]; week 6) of the same compound?
Answer: Its NK cell activity is “dose-dependent increase in NK cell activity”.

Question: What about the NK cell activity ([2]; week 6, dogs fed 30 mg) of the same compound?
Answer: Its NK cell activity is “significantly higher than control”.

Question: What about the “NK cell cytotoxic activity” value ([2]; week 12, 20 mg) of the same compound?
Answer: The value was “higher NK cell cytotoxic activity than control”.

Question: And the “NK cell cytotoxic activity” value ([2]; week 16 (trend as week 12: 20 mg higher, 40 mg not))?
Answer: The value was “same trend continued through week 16”.

Question: And the “plasma 8-OHdG concentrations” value ([3]; dogs fed 40 mg versus lower doses)?
Answer: Its value is “no further decrease”.

Question: What about the “plasma 8-OHdG production” value ([3]; supplemented dogs, as with C-reactive protein (post-vaccination)) of the same compound?
Answer: The value was “inhibited the production of 8-OHdG”.

Question: And the “plasma 8-OHdG concentration” value ([3]; wk 12)?
Answer: The value was “no dietary influence”.

Question: And the “plasma IgG concentration” value (IgG and IgM; [8])?
Answer: The value was “higher; also recorded: highest concentrations of IgG and IgM”.

Question: What about the “plasma IgG concentration” value (IgG and IgM; 20 mg, week 12) of the same compound?
Answer: The value was “higher”.

Question: And the “plasma IgM concentration” value (IgG and IgM; 20 mg, week 16)?
Answer: The value was “significantly higher IgM concentrations; also recorded: highest concentrations of IgG and IgM”.

Question: And the IgG production (IgG and IgM; higher (30 mg) dietary astaxanthin)?
Answer: Its IgG production is “did not produce the same stimulation”.

Question: And the “lipoprotein association of circulating astaxanthin” value ([4]; dogs)?
Answer: Its value is “associated with high-density lipoprotein (HDL)”.

Question: And the “absorption of dietary astaxanthin” value ([4]; domestic dogs)?
Answer: The value was “able to absorb dietary astaxanthin”.

Question: And the “uptake by blood and blood leukocytes (sub-cellular organelles)” value ([4]; domestic dogs fed astaxanthin)?
Answer: Its value is “significant uptake by the blood and by all sub-cellular organelles of blood leukocytes; also recorded: significantly absorbed by blood leukocytes”.

Question: And the blood hematology parameters (Hematology in cats)?
Answer: The blood hematology parameters was “generally did not influence”.

Question: And the “hematology values relative to normal range” value (Hematology in cats)?
Answer: The value was “within the normal range”.

Question: And the “NK cell cytotoxic activity” value ([5]; week 8)?
Answer: Its value is “no dietary treatment differences”.

Question: What about the “NK cell cytotoxic activity” value ([5]; week 12, effector:target ratio 5:1, 5 and 10 mg) of the same compound?
Answer: Its value is “stimulated NK cell cytotoxic activity”.

Question: And the “NK cell cytotoxic activity” value ([5]; week 12, effector:target ratio 10:1, 1, 5 and 10 mg)?
Answer: Its value is “stimulated NK cell cytotoxic activity”.

Question: And the “population of B cells” value [6, 8]?
Answer: The value was “showed the highest response; also recorded: highest B cell subpopulation”.

Question: What about the CD4 population ([6]; any time period) of the same compound?
Answer: Its CD4 population is “did not effect changes”.

Question: What about the CD8 population ([6]; any time period) of the same compound?
Answer: Its CD8 population is “did not effect changes”.

Question: And the “MHC class II population” value ([6]; any time period)?
Answer: Its value is “did not effect changes”.

Question: And the CD3 population ([6]; dogs fed 30 mg)?
Answer: The CD3 population was “transient decrease in the CD3 population”.

Question: And the “population of B cells” value ([6]; week 6 and 12, dose-dependent)?
Answer: Its value is “generally increased the population of B cells”.

Question: And the “proliferative response to ConA” value ([7]; 1 mg, post-vaccination week 12)?
Answer: The value was “higher proliferative response”.

Question: And the “proliferative response to PHA” value ([7]; 1 mg, post-vaccination week 12)?
Answer: The value was “higher proliferative response”.

Question: What about the “proliferative response to PWM” value ([7]; 1 mg, post-vaccination week 12) of the same compound?
Answer: The value was “higher proliferative response”.

Question: What about the “mitogen-induced PBMC proliferation” value ([7]; by week 8) of the same compound?
Answer: The value was “did not influence”.
